Laboratory results taken from patent US10905897B2, “Synergistic treatment methodologies using light therapy” (Neuro-Laser Foundation, Inc., priority 2016, dated 2021).

What was measured:
[1] = tested on: traumatic brain injury; conditions: two large U.S. studies; cited from earlier work
[2] = tested on: postconcussive symptoms; conditions: patients with TBI; cited from earlier work
[3] = tested on: depression; assay: Clinical experience with ketamine treatment for depression; conditions: extensive clinical experience
[4] = tested on: depressive symptoms and suicidal ideation; conditions: single infusion; cited from earlier work
[5] = tested on: nerves involved in polyneuropathy; assay: Polyneuropathy treatment: ketamine administration followed by infrared light, nerve conduction; format: in vivo, human; conditions: then 810 nm and 980 nm light, 10.5 watts, continuous wave, 10 minutes, about 9-10 treatments
Description: In one embodiment, the inventive method can be employed to treat an exemplary case of polyneuropathy. In this example, a neurologist or other medical professional can conduct an EMG study (or other diagnostic procedure) to determine which nerve is involved, locate the distal portion of the nerve and the path through the body. Then, after the appropriate ketamine administration, as part of 910, the operator configures the system. For example, this can be accomplished by setting the wattage to 10.5 watts, setting the wavelengths to 810 nm and 980 nm, specifying continuous wave, setting duration at 10 minutes, and determining total joules to be about 6000. The operator would then activate the applicator over the nerve to be treated. Maintaining proximity and applying active circular techniques, the operator would move the applicator over the area of involvement, tracing the actual nerve or nerves involved. This might entail, for instance, moving from the hip down the leg to the foot, or from the hand up the arm to the shoulder. The active sweeping pattern is maintained throughout, while monitoring the temperature, light, duration and patient as well. The treatment is then reviewed with the patient and follow-up treatments are scheduled (usually approximately 9-10 treatments for this condition). […]

[6] = tested on: tau protein; conditions: transgenic mice overexpressing tau, cited from earlier work
[7] = tested on: post-concussive syndrome; conditions: double-blind, placebo-controlled; cited from earlier work

Compound: C[N+](C)(C)CCOP(=O)(O)OP(=O)([O-])OC[C@H]1O[C@@H](n2ccc(N)nc2=O)[C@H](O)[C@@H]1O [Citicholine]
- benefit in TBI [1]: failed to demonstrate significant benefit

Compound: C[S+](CC[C@H](N)C(=O)O)C[C@H]1O[C@@H](n2cnc3c(N)ncnc32)[C@H](O)[C@@H]1O (some centres unmarked) [SAMe, S-adenosylmethionine]
- improvement in clinical scores of postconcussive symptoms [2]: 77%

Compound: CNC1(c2ccccc2Cl)CCCCC1=O (centres unmarked) [ketamine]
- patients treated for depression who see a favorable clinical response [3]: approximately 80%
- duration of symptom relief with single infusions [4]: 4 to 10 days
- increase in the conduction velocity of the nerves involved [5]: 20-30%

Compound: [Cl-].[Li+] [lithium chloride]
- resulting blood levels ([6]; dietary lithium chloride): ≤ 0.2 milli-Equivalents per liter
- levels of tau protein accumulation upon pathological examination [6]: significantly decreased

Compound: NC(=O)CN1CCCC1=O [piracetam, Piracetam]
- symptoms of post-concussive syndrome, including headache and vertigo [7]: improved several symptoms
